Measured values taken from US10123978B2, “Patch for treating dermatophytosis” (MEIJI SEIKA PHARMA CO., LTD., priority 2012, dated 2018).
Where a name gives a salt, the structure may show the parent alone.

Experiments:
[1] = tested on: Trichophyton mentagrophytes (T. mentagrophytes) ATCC18748; experiment: Antifungal activity test against dermatophytes (MIC); assay type: cell-based; details: 80% growth inhibiting concentration, RPMI1640/MOPS, 28° C., 3 days, WST8; for MIC: Trichophyton mentagrophytes, 72 h
Protocol: (§1) Measurement of the anti-trichophyton activity of the compound of the formula (I) comprised in the patch of the present invention was carried out by the following method. The compound to be evaluated was used by dissolving in dimethyl sulfoxide (DMSO). As a medium for the test, RPMI1640 medium containing 0.165M of 3-morpholinopropanesulfonic acid (MOPS) was used. As fungi to be tested, Trichophyton mentagrophytes (T. mentagrophytes) ATCC18748 or Trichophyton rubrum (T. rubrum) ATCC10218 was used. The testing fungal strain was apportioned to 100 μl with a concentration of 1×10^4 conidia/ml, mixed with a compound to be evaluated on a 96-well half area plate so that the DMSO concentration became 1%, and cultured at a cultivation temperature of 28° C. for 3 days (Trichophyton mentagrophytes) or 4 days (Trichophyton rubrum). Thereafter, 5 μl of Cell Counting Kit 8 (WST8) was added thereto, and absorbances at 450 nm and 595 nm were measured to use these as background values. Thereafter, these were cultivated at 28° C. for 5 hours (Trichophyton mentagrophytes) or overnight (Trichophyton rubrum) to cause a color, and absorbances at 450 nm and 595 nm were measured again. A growth inhibiting rate was calculated from the difference to the background values, and a 80% growth inhibiting concentration was made an MIC value (μg/ml).

[2] = tested on: Trichophyton rubrum (T. rubrum) ATCC10218; experiment: as above; assay type: cell-based; details: 80% growth inhibiting concentration, RPMI1640/MOPS, 28° C., 4 days, WST8; for MIC: Trichophyton rubrum, 96 h
Protocol: as §1

| Structure (SMILES) | MIC (T. mentagrophytes) [1] | MIC (T. rubrum) [2] | MIC [1] | MIC [2] |
| --- | --- | --- | --- | --- |
| COC(=O)CCc1c(C)nn(-c2ccccc2O)c1C [compound 23] | C (16 to 32 μg/ml) | D (>32-64 μg/ml) | – | – |
| Cc1cc(C)n(-c2ccc(CO)cc2O)n1 [compound 47] | B (2 to 8 μg/ml) | B (4-16 μg/ml) | – | – |
| CN(C/C=C/C#CC(C)(C)C)Cc1cccc2ccccc12 [Terbinafine hydrochloride, reference compound] | – | – | ≤ 1 µg/mL | ≤ 2 µg/mL |
| Cc1cc(C)n(-c2ccc(Br)cc2O)n1 [compound 54] | A (≤1 μg/ml) | A (≤2 μg/ml) | – | – |
| CCc1ccc(-n2nc(C)cc2C)c(O)c1 [compound 52] | A (≤1 μg/ml) | A (≤2 μg/ml) | – | – |
| Cc1cc(C)n(-c2ccccc2O)n1 [compound 1] | B (2 to 8 μg/ml) | B (4-16 μg/ml) | – | – |
| Cc1cc(C)n(-c2ccc(C(N)=O)cc2O)n1 [compound 39] | C (16 to 32 μg/ml) | C (16-32 μg/ml) | – | – |
| Cc1cc(C)n(-c2ccc(Cl)cc2O)n1 [compound 26] | A (≤1 μg/ml) | A (≤2 μg/ml) | – | – |
| Cc1nn(-c2ccc(N)cc2O)c(C)c1C [compound 34] | B (2 to 8 μg/ml) | B (4-16 μg/ml) | – | – |
| Cc1nn(-c2ccc(C(=O)O)cc2O)c(C)c1C [compound 40] | E (Inhibited less than 50% with 32 μg/ml) | D (>32-64 μg/ml) | – | – |
| Oc1ccccc1-n1nc(C(F)(F)F)cc1C(F)(F)F [compound 6] | C (16 to 32 μg/ml) | E (>64 μg/ml) | – | – |
| Cc1cc(C)n(-c2cccc(C)c2O)n1 [compound 51] | E (Inhibited less than 50% with 32 μg/ml) | D (>32-64 μg/ml) | – | – |
| Cc1nn(-c2ccc(Cl)cc2O)c(C)c1C [compound 30] | A (≤1 μg/ml) | A (≤2 μg/ml) | – | – |
| Cc1ccnn1-c1ccccc1O [compound 8] | C (16 to 32 μg/ml) | E (>64 μg/ml) | – | – |
| CCCCc1c(C)nn(-c2ccccc2O)c1C [compound 24] | A (≤1 μg/ml) | C (16-32 μg/ml) | – | – |
| Cc1cc(C)n(-c2cc(O)ccc2O)n1 [compound 16] | C (16 to 32 μg/ml) | E (>64 μg/ml) | – | – |
| Cc1nn(-c2ccccc2O)c(C)c1Cl [compound 13] | A (≤1 μg/ml) | B (4-16 μg/ml) | – | – |
| Cc1cc(C)n(-c2c(C)cccc2O)n1 [compound 46] | E (Inhibited less than 50% with 32 μg/ml) | D (>32-64 μg/ml) | – | – |
| CCc1c(C)nn(-c2ccccc2O)c1C [compound 17] | A (≤1 μg/ml) | A (≤2 μg/ml) | – | – |
| Cc1cc(C)n(-c2c(N)cccc2O)n1 [compound 36] | E (Inhibited less than 50% with 32 μg/ml) | D (>32-64 μg/ml) | – | – |

| Structure (SMILES) | MIC (T. mentagrophytes) [1] | MIC (T. rubrum) [2] | MIC [1] | MIC [2] |
| --- | --- | --- | --- | --- |
| CC(=O)Oc1ccc(-n2nc(C)cc2C)c(O)c1 [compound 57] | B (2 to 8 μg/ml) | B (4-16 μg/ml) | – | – |
| Cc1cc(C)n(-c2cccc(Cl)c2O)n1 [compound 12] | C (16 to 32 μg/ml) | E (>64 μg/ml) | – | – |
| Cc1cc(C)n(-c2ccc([N+](=O)[O-])cc2O)n1 [compound 28] | B (2 to 8 μg/ml) | C (16-32 μg/ml) | – | – |
| Cc1ccc(O)c(-n2nc(C)cc2C)c1 [compound 49] | E (Inhibited less than 50% with 32 μg/ml) | D (>32-64 μg/ml) | – | – |
| CCC(C)(C)c1ccc(CC(C)CN2C[C@@H](C)O[C@@H](C)C2)cc1 (some centres unmarked) [Amorolfine hydrochloride, reference compound] | – | – | ≤ 1 µg/mL | ≤ 2 µg/mL |
| Cc1nn(-c2ccc([N+](=O)[O-])cc2O)c(C)c1C [compound 32] | B (2 to 8 μg/ml) | B (4-16 μg/ml) | – | – |
| Cc1cc(C)n(-c2cc(Cl)ccc2O)n1 [compound 11] | C (16 to 32 μg/ml) | D (>32-64 μg/ml) | – | – |
| Cc1nn(-c2ccc(Br)cc2O)c(C)c1Cl [compound 55] | A (≤1 μg/ml) | A (≤2 μg/ml) | – | – |
| Cc1nn(-c2ccccc2O)c(C)c1C [compound 9] | A (≤1 μg/ml) | A (≤2 μg/ml) | – | – |
| Cc1nn(-c2cc(O)ccc2O)c(C)c1Cl [compound 19] | C (16 to 32 μg/ml) | C (16-32 μg/ml) | – | – |
| CCOC(=O)c1c(C)nn(-c2ccccc2O)c1C [compound 22] | C (16 to 32 μg/ml) | D (>32-64 μg/ml) | – | – |
| Cc1ccc(-n2nc(C)cc2C)c(O)c1 [compound 44] | A (≤1 μg/ml) | A (≤2 μg/ml) | – | – |
| Cc1cc(C)n(-c2cc(Cl)c(C)cc2O)n1 [compound 61] | C (16 to 32 μg/ml) | C (16-32 μg/ml) | – | – |
| CC(C)(C)c1cc(N)n(-c2ccccc2O)n1 [compound 10] | D (Inhibited 50% or more and less than 80% with 32 μg/ml) | E (>64 μg/ml) | – | – |
| CNc1ccc(-n2nc(C)cc2C)c(O)c1 [compound 48] | B (2 to 8 μg/ml) | B (4-16 μg/ml) | – | – |
| Cc1cc(C(F)(F)F)nn1-c1ccccc1O [compound 5] | C (16 to 32 μg/ml) | D (>32-64 μg/ml) | – | – |
| Cc1nn(-c2ccc(C(N)=O)cc2O)c(C)c1Cl [compound 42] | C (16 to 32 μg/ml) | D (>32-64 μg/ml) | – | – |
| Cc1nn(-c2ccc(Br)cc2O)c(C)c1C [compound 56] | A (≤1 μg/ml) | A (≤2 μg/ml) | – | – |
| Cc1cc(C)n(-c2ccc(C(=O)O)cc2O)n1 [compound 37] | B (2 to 8 μg/ml) | B (4-16 μg/ml) | – | – |
| Cc1cc(C)n(-c2ccc(O)cc2O)n1 [compound 33] | B (2 to 8 μg/ml) | A (≤2 μg/ml) | – | – |

| Structure (SMILES) | MIC (T. mentagrophytes) [1] | MIC (T. rubrum) [2] | MIC [1] | MIC [2] |
| --- | --- | --- | --- | --- |
| Cc1nn(-c2cc(F)ccc2O)c(C)c1C [compound 20] | C (16 to 32 μg/ml) | D (>32-64 μg/ml) | – | – |
| Cc1nn(-c2ccc(F)cc2O)c(C)c1Cl [compound 21] | A (≤1 μg/ml) | B (4-16 μg/ml) | – | – |
| COC(=O)c1ccc(-n2nc(C)cc2C)c(O)c1 [compound 35] | C (16 to 32 μg/ml) | C (16-32 μg/ml) | – | – |
| Cc1nn(-c2ccc(F)cc2O)c(C)c1C [compound 18] | B (2 to 8 μg/ml) | B (4-16 μg/ml) | – | – |
| Cc1cc(C)n(-c2ccc(C(=O)N(C)C)cc2O)n1 [compound 38] | C (16 to 32 μg/ml) | B (4-16 μg/ml) | – | – |
| CC(=O)Oc1ccc(-n2nc(C)c(Cl)c2C)c(O)c1 [compound 58] | B (2 to 8 μg/ml) | A (≤2 μg/ml) | – | – |
| Cc1cc(C)n(-c2cccc(O)c2O)n1 [compound 15] | C (16 to 32 μg/ml) | C (16-32 μg/ml) | – | – |
| Cc1cc(C)n(-c2ccc(C(F)(F)F)cc2O)n1 [compound 50] | B (2 to 8 μg/ml) | B (4-16 μg/ml) | – | – |
| Cc1ccn(-c2ccccc2O)n1 [compound 7] | C (16 to 32 μg/ml) | E (>64 μg/ml) | – | – |
| Cc1cc(C)n(-c2ccc(F)cc2O)n1 [compound 25] | B (2 to 8 μg/ml) | B (4-16 μg/ml) | – | – |
| Cc1cc(C)n(-c2ccc(N)cc2O)n1 [compound 31] | B (2 to 8 μg/ml) | B (4-16 μg/ml) | – | – |
| COc1ccc(-n2nc(C)cc2C)c(O)c1 [compound 45] | A (≤1 μg/ml) | A (≤2 μg/ml) | – | – |
| Cc1nn(-c2ccccc2O)c(C)c1F [compound 53] | B (2 to 8 μg/ml) | B (4-16 μg/ml) | – | – |
| CC(=O)Oc1ccc(-n2nc(C)c(C)c2C)c(O)c1 [compound 59] | B (2 to 8 μg/ml) | B (4-16 μg/ml) | – | – |
| Cc1nn(-c2ccc(C(N)=O)cc2O)c(C)c1C [compound 41] | D (Inhibited 50% or more and less than 80% with 32 μg/ml) | D (>32-64 μg/ml) | – | – |
| CCc1cc(CC)n(-c2ccccc2O)n1 [compound 14] | B (2 to 8 μg/ml) | B (4-16 μg/ml) | – | – |
| Cc1cc(C)n(-c2c(O)cccc2O)n1 [compound 43] | E (Inhibited less than 50% with 32 μg/ml) | D (>32-64 μg/ml) | – | – |
| Cc1nn(-c2ccc(O)cc2O)c(C)c1Cl [compound 63] | A (≤1 μg/ml) | A (≤2 μg/ml) | – | – |
